Source: patent publication US8415469B2, “Compounds and methods for kinase modulation, and indications therefor” (Plexxikon Inc., priority 2005, dated 2013)
pIC50: −log10 of the molar value. Each block holds one compound with its values, some of them ahead of it.

How the values were obtained:
Assay type in all cases: biochemical
[1] = molecular target: T1, Fms (Homo sapiens, UniProt P07333); assay: AlphaScreen kinase assay, Fms; conditions: read-out: IC50, activity toward kinase Fms
T1 construct: purchased Upstate Biotechnology

[2] = molecular target: T2, Fak (Homo sapiens, UniProt Q05397); assay: AlphaScreen kinase assay, Fak; conditions: read-out: IC50, activity toward kinase Fak
T2 construct: P1358.pFastBacHtb FAK S411-Q686-X; His6 with pFastBacHTb leader (TEV site) (N); made in house; host or cells: Sf9 (baculovirus)

[3] = molecular target: T3, FGFR1 (Homo sapiens, UniProt P11362, C488A/C584S); assay: AlphaScreen kinase assay, FGFR1; conditions: read-out: IC50, activity toward kinase FGFR
T3 construct: P1351.pET N6 BI-PTP FGFR A458-E765-X C488A, C584S; made in house; host or cells: E. coli (PTP1B co-expressed)

[4] = molecular target: T4, Kit (Homo sapiens, UniProt P10721); assay: AlphaScreen kinase assay, Kit; conditions: read-out: IC50, activity toward kinase Kit
T4 construct: P1332.N6 BI PTP KIT M552-K948-X COD; His6 (N); made in house; host or cells: E. coli (PTP1B co-expressed)

[5] = molecular target: T5, Stk6 (Homo sapiens, UniProt O14965); assay: Z'-Lyte FRET kinase assay (Invitrogen), Stk6; conditions: read-out: IC50, activity toward kinase Stk6
T5 construct: purchased Invitrogen (Carlsbad, Calif.), screening service
T5 sequence (O14965 1-403): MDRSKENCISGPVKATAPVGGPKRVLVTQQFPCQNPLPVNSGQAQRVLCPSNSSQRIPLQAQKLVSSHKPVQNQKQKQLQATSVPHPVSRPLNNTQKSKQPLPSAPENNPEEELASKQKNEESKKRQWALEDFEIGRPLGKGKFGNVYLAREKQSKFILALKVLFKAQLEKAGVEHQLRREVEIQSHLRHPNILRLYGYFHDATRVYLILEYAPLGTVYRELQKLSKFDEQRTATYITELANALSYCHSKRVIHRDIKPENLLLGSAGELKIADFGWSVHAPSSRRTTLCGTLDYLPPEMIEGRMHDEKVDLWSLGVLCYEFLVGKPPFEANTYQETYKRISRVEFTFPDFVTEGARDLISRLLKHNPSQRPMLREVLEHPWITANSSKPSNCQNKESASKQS

[6] = molecular target: T6, Kdr (Homo sapiens, UniProt P35968); assay: Z'-Lyte FRET kinase assay (Invitrogen), Kdr; conditions: read-out: IC50, activity toward kinase Kdr
T6 construct: purchased Invitrogen (assay run by Invitrogen)

[7] = molecular target: T7, B-Raf V600E (Homo sapiens, UniProt P15056, V600E); assay: AlphaScreen kinase assay, B-Raf V600E; conditions: read-out: IC50, activity toward kinase B-Raf V600E
T7 construct: P4254. pFastBacBD-CDC37 BRAF D437-K722-X, V600E; His6 with pFastBac HT leader (TEV site) (N); made in house; host or cells: Sf9 (baculovirus; chaperone CDC37 co-expressed)

[8] = molecular target: T8, Jnk3 (Homo sapiens, UniProt P53779); assay: AlphaScreen kinase assay, Jnk3; conditions: read-out: IC50, activity toward kinase Jnk3
T8 construct: purchased Upstate Biotechnology

[9] = molecular target: T9, B-Raf (Homo sapiens, UniProt P15056); assay: AlphaScreen kinase assay, B-Raf; conditions: read-out: IC50, activity toward kinase B-Raf
T9 construct: purchased Upstate Biotechnology

[10] = molecular target: T10, Ret (Homo sapiens, UniProt P07949); assay: AlphaScreen kinase assay, Ret; conditions: read-out: IC50, activity toward kinase Ret
T10 construct: P1378.pET-SF BI-PTP RET H661-R1012 HIS; made in house
T10 sequence (P07949 with tags, fused parts or gaps): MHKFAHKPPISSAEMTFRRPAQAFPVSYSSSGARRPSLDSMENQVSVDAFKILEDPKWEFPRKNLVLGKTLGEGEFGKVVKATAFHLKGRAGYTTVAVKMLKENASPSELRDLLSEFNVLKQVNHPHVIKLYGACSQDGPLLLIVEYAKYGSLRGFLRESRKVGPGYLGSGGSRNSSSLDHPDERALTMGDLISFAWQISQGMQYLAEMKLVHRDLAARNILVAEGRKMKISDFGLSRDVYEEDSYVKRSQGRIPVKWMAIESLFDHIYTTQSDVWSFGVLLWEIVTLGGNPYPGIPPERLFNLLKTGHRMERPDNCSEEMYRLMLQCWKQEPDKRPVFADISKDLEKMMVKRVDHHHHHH

T3 sequence (P11362 458-765 C488A/C584S): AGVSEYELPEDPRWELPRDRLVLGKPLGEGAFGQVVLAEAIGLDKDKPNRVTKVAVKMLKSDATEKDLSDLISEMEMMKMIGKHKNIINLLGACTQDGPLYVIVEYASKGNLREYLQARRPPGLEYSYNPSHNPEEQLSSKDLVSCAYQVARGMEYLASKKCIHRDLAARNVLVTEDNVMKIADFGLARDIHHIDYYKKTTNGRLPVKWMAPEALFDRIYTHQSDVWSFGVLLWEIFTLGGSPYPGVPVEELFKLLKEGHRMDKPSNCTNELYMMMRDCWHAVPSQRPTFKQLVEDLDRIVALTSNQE
T2 sequence (Q05397 411-686): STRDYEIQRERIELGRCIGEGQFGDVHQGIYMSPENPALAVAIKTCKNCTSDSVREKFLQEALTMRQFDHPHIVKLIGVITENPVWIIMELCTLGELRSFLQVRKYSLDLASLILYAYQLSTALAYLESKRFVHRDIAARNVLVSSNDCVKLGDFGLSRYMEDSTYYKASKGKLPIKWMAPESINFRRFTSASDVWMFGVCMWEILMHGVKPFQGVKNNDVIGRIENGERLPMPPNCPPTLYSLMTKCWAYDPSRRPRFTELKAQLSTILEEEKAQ
T8 sequence (P53779 whole entry): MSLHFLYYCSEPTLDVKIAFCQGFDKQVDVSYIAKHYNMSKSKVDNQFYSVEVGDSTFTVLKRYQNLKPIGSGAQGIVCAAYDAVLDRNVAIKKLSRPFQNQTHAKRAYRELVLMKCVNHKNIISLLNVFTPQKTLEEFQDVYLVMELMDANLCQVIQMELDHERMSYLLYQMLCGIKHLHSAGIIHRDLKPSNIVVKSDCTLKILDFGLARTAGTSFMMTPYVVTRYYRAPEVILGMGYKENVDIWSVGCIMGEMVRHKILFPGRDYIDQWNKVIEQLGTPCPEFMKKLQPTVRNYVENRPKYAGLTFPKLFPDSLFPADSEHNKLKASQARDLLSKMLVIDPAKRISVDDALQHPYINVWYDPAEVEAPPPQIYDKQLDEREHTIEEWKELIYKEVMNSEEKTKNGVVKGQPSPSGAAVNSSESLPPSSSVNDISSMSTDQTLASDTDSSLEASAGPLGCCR
T7 sequence (P15056 with tags, fused parts or gaps V600E): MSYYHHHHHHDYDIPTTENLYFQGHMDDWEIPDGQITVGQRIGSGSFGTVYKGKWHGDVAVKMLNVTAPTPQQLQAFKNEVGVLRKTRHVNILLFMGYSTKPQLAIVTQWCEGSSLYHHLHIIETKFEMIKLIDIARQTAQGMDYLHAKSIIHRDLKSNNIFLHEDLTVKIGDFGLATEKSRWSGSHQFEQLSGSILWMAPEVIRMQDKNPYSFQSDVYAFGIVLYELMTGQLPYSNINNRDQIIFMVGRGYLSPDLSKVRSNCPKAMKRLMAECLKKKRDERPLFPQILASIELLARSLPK
T1 sequence (P07333 20-972): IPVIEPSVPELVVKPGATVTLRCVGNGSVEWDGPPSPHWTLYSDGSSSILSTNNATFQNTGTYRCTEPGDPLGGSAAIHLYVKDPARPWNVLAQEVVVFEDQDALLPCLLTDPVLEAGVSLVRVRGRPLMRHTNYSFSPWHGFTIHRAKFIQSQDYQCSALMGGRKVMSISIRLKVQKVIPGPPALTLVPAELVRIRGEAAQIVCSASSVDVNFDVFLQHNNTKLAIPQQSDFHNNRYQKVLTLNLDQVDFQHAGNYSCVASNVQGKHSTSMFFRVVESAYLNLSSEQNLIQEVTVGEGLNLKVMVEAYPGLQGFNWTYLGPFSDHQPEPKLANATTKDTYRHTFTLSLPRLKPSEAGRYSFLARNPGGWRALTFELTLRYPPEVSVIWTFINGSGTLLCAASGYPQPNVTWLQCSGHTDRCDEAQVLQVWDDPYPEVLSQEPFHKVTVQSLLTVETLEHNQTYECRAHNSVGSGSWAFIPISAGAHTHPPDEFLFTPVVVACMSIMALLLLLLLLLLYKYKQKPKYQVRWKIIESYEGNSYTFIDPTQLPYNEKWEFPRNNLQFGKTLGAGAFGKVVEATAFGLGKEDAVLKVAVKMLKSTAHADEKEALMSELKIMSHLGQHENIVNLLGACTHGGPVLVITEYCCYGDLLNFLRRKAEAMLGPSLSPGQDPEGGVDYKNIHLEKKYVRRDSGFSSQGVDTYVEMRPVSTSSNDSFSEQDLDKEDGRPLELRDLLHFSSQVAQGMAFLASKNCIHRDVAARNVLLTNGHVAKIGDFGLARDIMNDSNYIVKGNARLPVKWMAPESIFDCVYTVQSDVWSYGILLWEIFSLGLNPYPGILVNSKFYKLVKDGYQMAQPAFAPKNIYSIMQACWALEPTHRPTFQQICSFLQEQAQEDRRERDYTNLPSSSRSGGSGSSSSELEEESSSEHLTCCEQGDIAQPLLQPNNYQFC
T4 sequence (P10721 with tags, fused parts or gaps): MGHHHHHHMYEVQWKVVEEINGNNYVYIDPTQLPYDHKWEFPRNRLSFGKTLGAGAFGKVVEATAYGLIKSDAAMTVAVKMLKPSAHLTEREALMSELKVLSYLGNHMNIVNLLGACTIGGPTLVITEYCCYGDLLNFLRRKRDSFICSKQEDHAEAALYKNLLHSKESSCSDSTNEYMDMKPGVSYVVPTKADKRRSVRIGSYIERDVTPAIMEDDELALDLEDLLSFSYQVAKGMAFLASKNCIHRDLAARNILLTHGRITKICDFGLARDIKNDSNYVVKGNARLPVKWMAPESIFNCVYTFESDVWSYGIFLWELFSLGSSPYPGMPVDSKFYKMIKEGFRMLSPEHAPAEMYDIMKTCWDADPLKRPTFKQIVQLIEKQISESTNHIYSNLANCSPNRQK
T6 sequence (P35968 20-1356): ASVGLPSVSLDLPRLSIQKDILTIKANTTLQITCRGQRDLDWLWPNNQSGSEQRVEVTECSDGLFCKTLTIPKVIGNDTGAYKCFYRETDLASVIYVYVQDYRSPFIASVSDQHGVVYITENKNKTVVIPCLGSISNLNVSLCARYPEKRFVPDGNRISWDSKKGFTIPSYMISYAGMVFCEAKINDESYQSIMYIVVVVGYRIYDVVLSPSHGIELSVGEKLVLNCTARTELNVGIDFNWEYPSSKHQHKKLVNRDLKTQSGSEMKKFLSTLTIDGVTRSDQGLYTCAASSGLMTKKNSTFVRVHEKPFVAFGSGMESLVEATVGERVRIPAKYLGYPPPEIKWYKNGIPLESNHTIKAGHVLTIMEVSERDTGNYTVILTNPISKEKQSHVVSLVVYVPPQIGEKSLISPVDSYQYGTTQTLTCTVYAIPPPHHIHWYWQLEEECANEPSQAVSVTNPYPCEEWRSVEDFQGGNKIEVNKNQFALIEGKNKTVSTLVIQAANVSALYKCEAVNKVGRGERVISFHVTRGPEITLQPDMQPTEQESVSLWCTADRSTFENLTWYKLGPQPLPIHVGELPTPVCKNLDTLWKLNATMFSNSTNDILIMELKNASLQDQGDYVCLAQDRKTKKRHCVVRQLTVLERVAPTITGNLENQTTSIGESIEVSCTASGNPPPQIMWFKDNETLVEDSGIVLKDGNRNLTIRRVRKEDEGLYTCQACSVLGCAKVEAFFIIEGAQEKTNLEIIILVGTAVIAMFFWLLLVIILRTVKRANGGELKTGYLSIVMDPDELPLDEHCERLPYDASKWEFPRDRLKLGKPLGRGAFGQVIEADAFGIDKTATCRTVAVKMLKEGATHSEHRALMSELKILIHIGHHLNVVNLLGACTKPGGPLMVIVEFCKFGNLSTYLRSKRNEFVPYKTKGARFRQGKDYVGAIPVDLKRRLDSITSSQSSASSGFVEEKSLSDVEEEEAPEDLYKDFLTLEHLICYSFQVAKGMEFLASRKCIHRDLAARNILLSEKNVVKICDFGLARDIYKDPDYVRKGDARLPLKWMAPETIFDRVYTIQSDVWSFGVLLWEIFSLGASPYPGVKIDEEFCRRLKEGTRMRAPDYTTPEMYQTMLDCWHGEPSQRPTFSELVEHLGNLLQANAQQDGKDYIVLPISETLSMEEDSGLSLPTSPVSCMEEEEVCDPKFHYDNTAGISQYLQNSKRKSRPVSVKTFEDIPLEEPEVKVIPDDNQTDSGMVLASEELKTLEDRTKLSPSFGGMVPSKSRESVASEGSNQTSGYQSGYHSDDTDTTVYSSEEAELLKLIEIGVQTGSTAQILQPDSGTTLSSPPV
T9 sequence (P15056 whole entry): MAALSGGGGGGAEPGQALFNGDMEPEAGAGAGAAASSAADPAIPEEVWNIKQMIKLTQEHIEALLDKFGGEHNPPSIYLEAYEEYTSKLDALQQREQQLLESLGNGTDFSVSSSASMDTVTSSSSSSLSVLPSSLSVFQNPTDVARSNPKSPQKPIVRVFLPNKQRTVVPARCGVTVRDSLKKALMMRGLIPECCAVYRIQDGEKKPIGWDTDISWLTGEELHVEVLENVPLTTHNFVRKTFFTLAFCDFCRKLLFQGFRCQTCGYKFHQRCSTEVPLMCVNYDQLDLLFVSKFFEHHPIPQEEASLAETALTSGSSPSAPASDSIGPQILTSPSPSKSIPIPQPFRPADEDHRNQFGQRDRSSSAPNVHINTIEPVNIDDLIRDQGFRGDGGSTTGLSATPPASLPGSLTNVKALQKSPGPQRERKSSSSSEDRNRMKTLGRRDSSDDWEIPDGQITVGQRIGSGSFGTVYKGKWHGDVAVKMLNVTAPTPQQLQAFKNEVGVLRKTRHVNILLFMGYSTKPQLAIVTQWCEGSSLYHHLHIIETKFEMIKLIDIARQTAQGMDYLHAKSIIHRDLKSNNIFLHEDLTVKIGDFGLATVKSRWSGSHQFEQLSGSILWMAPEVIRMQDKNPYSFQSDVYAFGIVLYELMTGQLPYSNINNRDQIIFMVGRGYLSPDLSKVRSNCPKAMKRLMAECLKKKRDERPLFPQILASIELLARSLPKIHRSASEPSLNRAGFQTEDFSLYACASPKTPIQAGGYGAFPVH

Compound: Cc1cc(C)cc(-c2c(C)[nH]c3ncccc23)c1 [Compound P-1054]
pIC50 [2]: ≥ 5.00

Compound: c1coc(-c2nc(-c3ccnc4[nH]ccc34)no2)c1 [Compound P-0319]
pIC50 [5]: ≥ 5.00
pIC50 [6]: ≥ 5.00

Compound: Cn1cccc1C(=O)c1c[nH]c2ncccc12 [Compound P-0147]
pIC50 [5]: ≥ 5.00
pIC50 [7]: ≥ 5.00
pIC50 [6]: ≥ 5.00

Compound: CC(C)CCc1c[nH]c2ncccc12 [Compound P-0797]
pIC50 [2]: ≥ 5.00

Compound: Fc1ccc(-c2c(CSCc3ccco3)[nH]c3ncccc23)cc1 [Compound P-0064]
pIC50 [5]: ≥ 5.00
pIC50 [10]: ≥ 5.00
pIC50 [4]: ≥ 5.00
pIC50 [6]: ≥ 5.00

Compound: Cc1[nH]c2ncccc2c1-c1ccc(C(C)C)cc1 [Compound P-1083]
pIC50 [2]: ≥ 5.00

Compound: CC(=O)c1cccc(-c2cnc3[nH]ccc3c2)c1 [Compound P-0080]
pIC50 [5]: ≥ 5.00
pIC50 [8]: ≥ 5.00

Compound: c1ccc(-c2cnc3[nH]ccc3c2)cc1 [Compound P-0279]
pIC50 [5]: ≥ 5.00
pIC50 [8]: ≥ 5.00
pIC50 [4]: ≥ 5.00
pIC50 [6]: ≥ 5.00

Compound: O=C(O)/C=C/c1ccc(-c2ccnc3[nH]ccc23)cc1 [Compound P-0203]
pIC50 [5]: ≥ 5.00
pIC50 [6]: ≥ 5.00

Compound: Fc1cccc(-c2ccnc3[nH]cc(Sc4cccs4)c23)c1 [Compound P-0181]
pIC50 [5]: ≥ 5.00
pIC50 [10]: ≥ 5.00
pIC50 [7]: ≥ 5.00

Compound: COc1ccc(-c2c(CSCC(C)C)[nH]c3ncccc23)cc1 [Compound P-0313]
pIC50 [5]: ≥ 5.00
pIC50 [8]: ≥ 5.00

Compound: CC(=O)c1cccc(-c2ccnc3[nH]cc(Sc4cccs4)c23)c1 [Compound P-0092]
pIC50 [5]: ≥ 5.00
pIC50 [7]: ≥ 5.00
pIC50 [6]: ≥ 5.00

Compound: c1cnc2[nH]cc(-c3ccoc3)c2c1 [Compound P-0260]
pIC50 [5]: ≥ 5.00
pIC50 [6]: ≥ 5.00

Compound: O=C(O)/C=C/c1cccc(-c2ccnc3[nH]cc(C(=O)c4ccc(Cl)cc4)c23)c1 [Compound P-0100]
pIC50 [5]: ≥ 5.00
pIC50 [10]: ≥ 5.00
pIC50 [7]: ≥ 5.00
pIC50 [6]: ≥ 5.00

Compound: Cc1cc(C(=O)c2c[nH]c3nccc(-c4cccc(/C=C/C(=O)O)c4)c23)n(C)n1 [Compound P-0469]
pIC50 [5]: ≥ 5.00
pIC50 [10]: ≥ 5.00

Compound: Cc1[nH]c2ncccc2c1-c1ccco1 [Compound P-1190]
pIC50 [2]: ≥ 5.00

Compound: Cc1ccc(-c2ccnc3[nH]cc(Sc4cccs4)c23)cc1[N+](=O)[O-] [Compound P-0199]
pIC50 [5]: ≥ 5.00
pIC50 [7]: ≥ 5.00
pIC50 [6]: ≥ 5.00

Compound: O=C(O)/C=C/c1cccc(-c2ccnc3[nH]cc(C(=O)c4cccc(Cl)c4Cl)c23)c1 [Compound P-0110]
pIC50 [5]: ≥ 5.00
pIC50 [10]: ≥ 5.00
pIC50 [7]: ≥ 5.00
pIC50 [6]: ≥ 5.00

Compound: Cc1ccc(Sc2c[nH]c3nccc(-c4cccc(CO)c4)c23)cc1 [Compound P-0250]
pIC50 [5]: ≥ 5.00
pIC50 [10]: ≥ 5.00

Compound: NS(=O)(=O)c1cccc(Nc2c[nH]c3ncccc23)c1 [Compound P-1500, 3-(1H-Pyrrolo[2,3-b]pyridin-3-ylamino)-benzenesulfonamide]
pIC50 [1]: ≥ 5.00
pIC50 [2]: ≥ 5.00
pIC50 [4]: ≥ 5.00

Compound: COc1cccc(C(=O)c2ccc(-c3cnc4[nH]ccc4c3)s2)c1 [Compound P-0494]
pIC50 [2]: ≥ 5.00

Second part, the compound after the results:

pIC50 [1]: ≥ 5.00
pIC50 [2]: ≥ 5.00
pIC50 [3]: ≥ 5.00
pIC50 [4]: ≥ 5.00
Compound: OC(c1ccccc1F)c1c[nH]c2ncc(Br)cc12 (stereo not drawn) [Compound P-1321]

pIC50 [5]: ≥ 5.00
pIC50 [6]: ≥ 5.00
Compound: Fc1cccc(-c2ccnc3[nH]ccc23)c1 [Compound P-0225]

pIC50 [2]: ≥ 5.00
Compound: Cc1[nH]c2ncccc2c1-c1ccc(F)c(Cl)c1 [Compound P-1146]

pIC50 [5]: ≥ 5.00
pIC50 [6]: ≥ 5.00
Compound: c1coc(CNCc2c[nH]c3ncccc23)c1 [Compound P-0322]

pIC50 [1]: ≥ 5.00
pIC50 [2]: ≥ 5.00
pIC50 [3]: ≥ 5.00
pIC50 [4]: ≥ 5.00
pIC50 [7]: ≥ 5.00
Compound: COc1cccc(Cc2c[nH]c3ncc(-c4ccccc4)cc23)c1F [Compound P-1323, 3-(2-Fluoro-3-methoxy-benzyl)-5-phenyl-1H-pyrrolo[2,3-b]pyridine]

pIC50 [5]: ≥ 5.00
pIC50 [1]: ≥ 5.00
pIC50 [8]: ≥ 5.00
pIC50 [3]: ≥ 5.00
pIC50 [6]: ≥ 5.00
Compound: O=C(c1ccc(Nc2cccc(O)c2)nc1)c1c[nH]c2ncccc12 [Compound P-0189]

pIC50 [1]: ≥ 5.00
pIC50 [2]: ≥ 5.00
pIC50 [4]: ≥ 5.00
pIC50 [7]: ≥ 5.00
Compound: Cc1cccc(C)c1Cc1c[nH]c2ncccc12 [Compound P-0333, 3-(2,6-Dimethyl-benzyl)-1H-pyrrolo[2,3-b]pyridine]

pIC50 [1]: ≥ 5.00
pIC50 [2]: ≥ 5.00
pIC50 [9]: ≥ 5.00
pIC50 [3]: ≥ 5.00
pIC50 [4]: ≥ 5.00
pIC50 [7]: ≥ 5.00
Compound: COc1ccc(Cc2c[nH]c3ncc(-c4cccc(C(N)=O)c4)cc23)c(F)c1 [Compound P-1341]

pIC50 [1]: ≥ 5.00
pIC50 [2]: ≥ 5.00
pIC50 [3]: ≥ 5.00
pIC50 [4]: ≥ 5.00
pIC50 [7]: ≥ 5.00
Compound: COc1cccc(Cc2c[nH]c3ncc(-c4cccc(NS(C)(=O)=O)c4)cc23)c1F [Compound P-1329, N-{3-[3-(2-Fluoro-3-methoxy-benzyl)-1H-pyrrolo[2,3-b]pyridin-5-yl]-phenyl}-methanesulfonamide]

pIC50 [1]: ≥ 5.00
pIC50 [2]: ≥ 5.00
pIC50 [3]: ≥ 5.00
pIC50 [4]: ≥ 5.00
pIC50 [7]: ≥ 5.00
Compound: OCCOc1ccc(F)c(Cc2c[nH]c3ncc(Br)cc23)c1F [Compound P-1392, 2-[3-(5-Bromo-1H-pyrrolo[2,3-b]pyridin-3-ylmethyl)-2,4-difluoro-phenoxy]-ethanol]

pIC50 [1]: ≥ 5.00
pIC50 [2]: ≥ 5.00
pIC50 [3]: ≥ 5.00
pIC50 [4]: ≥ 5.00
Compound: Fc1cccc(F)c1Cc1c[nH]c2ncccc12 [Compound P-1482, 3-(2,6-Difluoro-benzyl)-1H-pyrrolo[2,3-b]pyridine]

pIC50 [5]: ≥ 5.00
pIC50 [7]: ≥ 5.00
pIC50 [6]: ≥ 5.00
Compound: OC(c1ccc(NCc2ccc(Cl)cc2)nc1)c1c[nH]c2ncccc12 (stereo not drawn) [Compound P-0261]

pIC50 [5]: ≥ 5.00
pIC50 [7]: ≥ 5.00
pIC50 [6]: ≥ 5.00
Compound: O=C(c1ccc(Oc2cc(Cl)cc(Cl)c2)o1)c1c[nH]c2ncccc12 [Compound P-0295]

pIC50 [5]: ≥ 5.00
pIC50 [9]: ≥ 5.00
pIC50 [6]: ≥ 5.00
Compound: COC(c1c(F)ccc(N(Cc2ccccc2)Cc2ccccc2)c1F)c1c[nH]c2ncc(-c3cccnc3)cc12 (stereo not drawn) [Compound P-0143]

pIC50 [5]: ≥ 5.00
pIC50 [10]: ≥ 5.00
pIC50 [7]: ≥ 5.00
pIC50 [6]: ≥ 5.00
Compound: OCc1cccc(-c2ccnc3[nH]cc(Sc4cccs4)c23)c1 [Compound P-0071]

pIC50 [1]: ≥ 5.00
pIC50 [2]: ≥ 5.00
pIC50 [3]: ≥ 5.00
pIC50 [4]: ≥ 5.00
pIC50 [7]: ≥ 5.00
Compound: Brc1cnc2[nH]cc(Cc3ccc4c(c3)OCCO4)c2c1 [Compound P-1474, 5-Bromo-3-(2,3-dihydro-benzo[1,4]dioxin-6-ylmethyl)-1H-pyrrolo[2,3-b]pyridine]

pIC50 [5]: ≥ 5.00
pIC50 [8]: ≥ 5.00
pIC50 [3]: ≥ 5.00
pIC50 [4]: ≥ 5.00
Compound: c1ccc(COc2cccc(Cc3c[nH]c4ncc(-c5ccsc5)cc34)c2)cc1 [Compound P-0132]

pIC50 [2]: ≥ 5.00
Compound: COc1ccc(CCCc2c[nH]c3ncccc23)cc1 [Compound P-0437]

pIC50 [2]: ≥ 5.00
Compound: CCCCN(c1ccc(F)c(Cc2c[nH]c3ncc(-c4cccnc4)cc23)c1F)S(=O)(=O)c1ccc(C(F)(F)F)cc1 [Compound P-1401]
